Data published in patent publication EP0007648A1, “New acylureas with pharmaceutical activity, the process for their preparation, and pharmaceutical compositions which contain them” (Investigacion Tecnica Y Aplicada, S.A., priority 1978, dated 1980).

Tests used:
[1] = in vivo; details: mouse, ip, NMRI male mice, suspended in Tween 80 at 1% plus CMC at 2% in physiological serum, read-out: LD 50 mg/kg. i.p. NMRI mouse
Description: The products were administered via intraperitoneal, suspended in Tween 80 at 1% plus CMC at 2% in physiological serum.
The reference standard used was phenolbutazone.

[2] = system: Platelet aggregation; assay: Anti platelet aggregation activity "ex vivo" (Born), ADP-induced aggregation after administration by gastric catheter; type: in vivo, rats, Sprage Dawley; details: for inhibition at 200 mg/kg: Dose 200 mg/kg p.o., rats, ADP-induced, 5 hours after administration; for anti platelet aggregation activity (in words): compared with acetilsalicilic acid given in a double dose
Source text: Platelet aggregation is induced by ADP (adenosindiphosphate) and measured in an aggregometer(Bryston) connected to a model R Omniscriber recorder.

[3] = system: lactescence of the serum; assay: Hyperlipaemia activity: lactescence of the serum after oral olive oil; type: in vivo; details: for Activity; Hyper Lipaemia (%): Dose 200 mg/kg orally, suspended in 10 ml/kg of olive oil, serum lactescence 6 hours after administration; for hyperlipaemia activity (in words): against clofibrate
Description: For the determination of the hyperlipaemia activity the products were administered orally suspended in 10 ml/kg of olive oil evaluating the lactescence of the serum 6 hours after administration.

[4] = system: hypercholesterolaemia induced by the administration of Triton WR 1339; assay: Hypercholesterolaemia induced by Triton WR 1339 (Garattini et al.); type: in vivo; details: among the products examined
Source text: To determine the hypercholesterolaemia activity tests have been conducted with hypercholesterolaemia induced by the administration of Triton WR 1339 in accordance with S. Garattini C.Morpurgo and Passerini (Experiment 12 (1956)347). The results obtained using clofibrate (ethyl […] of p-chlorophenoxyisobutiric acid), as a reference standard are shown in Table II below.

[5] = Rattus norvegicus, Platelet, po

Row | Compound | LD50 [1] [mg/kg] | inhibition at 200 mg/kg [2, 5] [%] | anti platelet aggregation activity (in words) [2] | Activity; Hyper Lipaemia (%) [3] | hyperlipaemia activity (in words) [3] | inhibition at 400 mg/kg ([2]; Rattus norvegicus, Platelet, po, 5 h, read-out: Anti platelet aggregation p.o. % inhibition (5 hours)) [%] | hypercholesterolaemia activity (in words) [4]
1 | COc1ccccc1C(=O)NC(=O)NCN1CCOCC1 [ITA-418, N-(2-methoxybenzoil)-N'-morpholinomethylurea] | 1100 | 68 |  |  |  |  | 
2 | O=C(NCN1CCOCC1)NC(=O)c1cccnc1 [ITA-378, N-nicotinoil-N'-morpholino methylurea] | 1700 | 81.9 | stand out in their anti platelet aggregation activity | 54,7% | stand out in this activity |  | 
3 | CC(C)(Oc1ccc(C(=O)c2ccc(Cl)cc2)cc1)C(=O)NC(N)=O [ITA-374, N-2-[p-(p' -chlorobenzoil)phenoxy]-2-methylpropionylurea] | > 3000 | 16.1 |  | 28,2% |  |  | 
4 | CC(C)Cc1ccc(C(C)C(=O)NC(=O)NCN2CCOCC2)cc1 (stereo not shown) [ITA-376, N-2-(p-isobutylphenyl) propionyl-N'-morpholinomethylurea] | 1800 | 12.7 |  | 1,3% |  |  | 
5 | CC(=O)Oc1ccccc1C(=O)O [Acelylsalicilic acid, reference compound] |  |  |  |  |  | 86.3 | 
6 | CC(C)(Oc1ccc(C(=O)c2ccc(Cl)cc2)cc1)C(=O)NC(=O)NCN1CCOCC1 [ITA-375, N-2-[p-(p'-chlorobenzoil)phenoxy]-2-methylpropionyl-N'-morpholine methylurea] | 950 | 68.5 | stand out in their anti platelet aggregation activity | 41,1% | stand out in this activity |  | stands out for its efficacity
7 | COc1ccc2c(c1)c(CC(=O)NC(=O)NCN1CCOCC1)c(C)n2C(=O)c1ccc(Cl)cc1 [ITA-377, N-[1-(p-chiorobenzoil) -2-methyl-5-methoxyindol-3-il]acetyl-N' -morpholinomethylurea] | > 3000 | 5.3 |  | 12,6% |  |  | 
8 | O=C(NCN1CCOCC1)NC(=O)C(Oc1ccc(Cl)cc1)Oc1ccc(Cl)cc1 [ITA-373, N-[bis(p-chiorophenoxy)] acetyl -N'-morpholinomethylurea] | 1700 | 11.9 |  |  |  |  | 
9 | O=C(COc1ccc(Cl)cc1)NC(=O)NCN1CCOCC1 [ITA-372, N-(p-chlorophenoxy)acetyl N' -morpholinomethylurea] | 300 | 8.1 |  |  |  |  | 
10 | CCOC(=O)C(C)(C)Oc1ccc(Cl)cc1 [Clofibrate, ethyl esther of p-chlorophenoxyisobutiric acid, reference compound] |  |  |  | 22,8% |  |  | 
